Measurements reported in patent US20110256121A1, “METHODS AND KITS FOR DIAGNOSING OR MONITORING AUTOIMMUNE AND CHRONIC INFLAMMATORY DISEASES” (THE REGENTS OF THE UNIVERSITY OF MICHIGAN, priority 2008, published 2011).

How the values were obtained:
Type in all cases: cell-based, human
KIR2DL2 promoter = KIR2DL2 promoter methylation, bisulfite sequencing and MS-PCR
Method: (§1) Bisulfite conversion and DNA sequencing. Genomic DNA was isolated from T cells using FlexiGene DNA Kits (QIAGEN) then treated with sodium bisulfite as described (15). HotStar Taq (QIAGEN) was used for amplification with the following conditions: initial incubation 95° C. 15 min, then 45 cycles 95° C. 30 s, 52° C. 30 s and 72° C. 30 s. PCR products were purified using QIAEXII Gel Extraction Kits (QIAGEN), and cloned using the pGEM-T Easy Vector System (Promega, Madison, Wis.). 10 cloned fragments were sequenced for each sample by the University of Michigan Sequencing Core.
(§2) Real-time quantitative methylation specific PCR (MSP). Three real-time MSP assays were developed for detection and quantitation of each KIR gene: one specific for the bisulfite-converted methylated sequence, one for the bisulfite-converted unmethylated sequence, and a loading control comprising primers to an adjacent bisulfite-converted sequence lacking CG pairs. MSP reactions were performed using QuantiTect SYBR Green PCR kits (QIAGEN) according to the manufacture's protocol using […] of each primer, 100 ng converted DNA and the Rotor-Gene 3000. […] Levels of amplified methylated and unmethylated fragments were standardized to the control fragment, and the methylation index calculated as […]

KIR2DL4 = KIR2DL4 expression on T cells by flow cytometry; settings: 5-azaC 72 h, p<0.001 for both
Method: (§3) T cell purification and culture. Peripheral blood mononuclear cells (PBMC) were isolated from healthy donors by density gradient centrifugation, stimulated for 18 hours with 1 μg/mlphytohemagglutinin (PHA) (Murex, Norcross, Ga.), then treated or not with 5 μm 5-azacytidine (5-azaC, Sigma, St. Louis, Mo.) for 72 hours as described (6). Total T cells, CD4^+ T cells or CD8′ T cells then were purified using the pan T cell isolation kit II or the CD4^+ and CD8^+ T cell isolation kit II from Miltenyi (Auburn, Calif.). T cells were typically >94% CD3^+ by flow cytometry. Jurkat cells (E6-1) were maintained in culture as described (11). This protocol was approved by the University of Michigan Institutional Review Board.
Flow Cytometric Analysis. The following monoclonal antibodies were used: CYC-anti-CD3, FITC-anti-CD8, CYC-anti-CD4, FITC-anti-CD28, CYC-mouse IgG1 and FITC-mouse-IgG1 (all from BD PharMingen, San Diego, Calif.). Anti-CD158b1/b2, j-PE (GL183, reactive with KIR 2DL2/2DL3/2DS2) was obtained from Beckman Coulter Immunotech (Buckinghamshire, UK), anti-CD158d-PE (anti-KIR2DL4) from R&D Systems (Minneapolis, Minn.), and PE-mouse-IgG2A from Abcam (Cambridge Mass.). Cell staining and fixation were performed as described (2; 6), and cells analyzed using a FACSCalibur flow cytometer (BD Biosciences, Franklin Lakes, N.J.).

KIR2DL4 promoter = KIR2DL4 promoter methylation, bisulfite sequencing and MS-PCR
Method: as §1, §2

KIR2DL2 = KIR2DL2 transcripts by real-time quantitative RT-PCR; settings: relative to β-actin, p<0.001 for both
Method: as §3
Real-time quantitative RT-PCR. Total RNA was isolated using the RNeasy Mini Kit (QIAGEN, Valencia, Calif.). Primers were designed to match polymorphic positions unique to KIR2DL2 or KIR2DL4 genes as described by Uhrberg et al. (13). Controls included β-actin primers as described (14). Real-time quantitative RT-PCR was performed with a Rotor-Gene 3000 (Corbett Robotics, San Francisco, Calif.) and QuantiTect SYBR Green RT-PCR kit (QIAGEN) according to manufacturer's instructions. cDNA synthesized from T cells was used to generate standard curves for β-actin, KIR2DL2 and KIR2DL4, and each experiment was repeated at least twice.
Confirmation at the protein and mRNA levels. […]

[1] = CD4+ and CD8+ cells, 5-azaC treated vs untreated

Nc1ncn([C@@H]2O[C@H](CO)[C@@H](O)[C@H]2O)c(=O)n1 [5-azaC, 5-azacytidine]
KIR2DL2 promoter methylation pattern, bisulfite sequencing (KIR2DL2 promoter; [1]): generalized demethylation throughout the region
KIR2DL2 promoter methylation index, MS-PCR (KIR2DL2 promoter; CD4+ and CD8+ subsets, p<0.001): demethylates these regions in all 5 subjects
KIR2DL4 expression on CD4+ and CD8+ T cells (KIR2DL4): induces KIR2DL4 expression on CD4+ and CD8+ T cells
KIR2DL4 promoter methylation pattern, bisulfite sequencing (KIR2DL4 promoter; [1]): generalized demethylation in the treated cells
KIR2DL4 promoter methylation index, MS-PCR (KIR2DL4 promoter; CD4+ and CD8+ subsets, p<0.001): demethylates these regions in all 5 subjects
KIR2DL2 mRNA in CD4+ and CD8+ T cells (KIR2DL2): increase is significant in both subsets
